Reference: the supplement of paper PMC10307832

How the values were obtained:
Assay in all cases: relative viability (nuclei count vs DMSO), 5 days (fraction); higher = more cells survive
[1] = compound: Cn1cc(-c2cnn3c(N)c(Br)c([C@@H]4CCCNC4)nc23)cn1
Summary of the method: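 Viability was read as treated-well nuclei divided by vehicle-well nuclei, using the median across plates. Lung cancer cell lines in 1536-well plates were kept overnight at 37 °C, pinned with five √10-spaced library-drug doses, and after 5 days were Hoechst-stained, imaged at 4× and counted in MetaXpress. Plates passed only with control CV below 25% and at least one doubling.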

[2] = compound: Cn1cc(-c2cnn3c(N)c(Br)c([C@@H]4CCCNC4)nc23)cn1 + CC(=O)Nc1cccc(-n2c(=O)n(C3CC3)c(=O)c3c(Nc4ccc(I)cc4F)n(C)c(=O)c(C)c32)c1 [Trametinib] (partner 0.02 µM)
Summary of the method: (§1)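 Lung cancer cell lines, seeded in 1536-well plates, were treated the following day by pin tool with a single drug or with five library-drug doses (not always all listed) in √10 steps on top of a fixed anchor-drug dose. Cells were fixed and nuclei stained in one step after 5 days, and nuclei were counted. Relative viability is the nuclei count for treated wells divided by that for vehicle wells, reported as medians of duplicate plates.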

[3] = compound: Cn1cc(-c2cnn3c(N)c(Br)c([C@@H]4CCCNC4)nc23)cn1 + COc1cccc2cc(-c3nc([C@H]4CC[C@H](C(=O)O)CC4)n4ncnc(N)c34)[nH]c12 [OSI-027] (partner 0.5 µM)
Summary of the method: as §1

[4] = compound: Cn1cc(-c2cnn3c(N)c(Br)c([C@@H]4CCCNC4)nc23)cn1 + N=C(N)NC(=N)NCCc1ccccc1 [Phenformin] (partner 250 µM)
Summary of the method: as §1

Cell Line: NCI-H2347
- relative viability ([1]; 0.05 µM): 0.987
- relative viability ([1]; 0.1581 µM): 1.09
- relative viability ([1]; 0.5 µM): 1.2
- relative viability ([1]; 1.581 µM): 0.953
- relative viability ([1]; 5 µM): 0.853
- relative viability ([2]; first compound 0.05 µM): 0.272
- relative viability ([2]; first compound 0.1581 µM): 0.285
- relative viability ([2]; first compound 0.5 µM): 0.298
- relative viability ([2]; first compound 1.581 µM): 0.251
- relative viability ([2]; first compound 5 µM): 0.232
- relative viability ([3]; first compound 0.05 µM): 0.418
- relative viability ([3]; first compound 0.1581 µM): 0.594
- relative viability ([3]; first compound 0.5 µM): 0.291
- relative viability ([3]; first compound 1.581 µM): 0.377
- relative viability ([3]; first compound 5 µM): 0.326
- relative viability ([4]; first compound 0.05 µM): 0.338
- relative viability ([4]; first compound 0.1581 µM): 0.396
- relative viability ([4]; first compound 0.5 µM): 0.406
- relative viability ([4]; first compound 1.581 µM): 0.449
- relative viability ([4]; first compound 5 µM): 0.337

Cell Line: NCI-H2405
- relative viability ([1]; 0.05 µM): 0.935
- relative viability ([1]; 0.1581 µM): 1.01
- relative viability ([1]; 0.5 µM): 0.959
- relative viability ([1]; 1.581 µM): 0.983
- relative viability ([1]; 5 µM): 0.769
- relative viability ([2]; first compound 0.05 µM): 0.642
- relative viability ([2]; first compound 0.1581 µM): 0.644
- relative viability ([2]; first compound 0.5 µM): 0.553
- relative viability ([2]; first compound 1.581 µM): 0.577
- relative viability ([2]; first compound 5 µM): 0.455
- relative viability ([3]; first compound 0.05 µM): 0.607
- relative viability ([3]; first compound 0.1581 µM): 0.594
- relative viability ([3]; first compound 0.5 µM): 0.652
- relative viability ([3]; first compound 1.581 µM): 0.623
- relative viability ([3]; first compound 5 µM): 0.54
- relative viability ([4]; first compound 0.05 µM): 0.384
- relative viability ([4]; first compound 0.1581 µM): 0.522
- relative viability ([4]; first compound 0.5 µM): 0.398
- relative viability ([4]; first compound 1.581 µM): 0.363
- relative viability ([4]; first compound 5 µM): 0.318

Cell Line: NCI-H3122
- relative viability ([1]; 0.05 µM): 1.03
- relative viability ([1]; 0.1581 µM): 1.03
- relative viability ([1]; 0.5 µM): 1.03
- relative viability ([1]; 1.581 µM): 1.06
- relative viability ([1]; 5 µM): 1.1
- relative viability ([2]; first compound 0.05 µM): 0.267
- relative viability ([2]; first compound 0.1581 µM): 0.236
- relative viability ([2]; first compound 0.5 µM): 0.212
- relative viability ([2]; first compound 1.581 µM): 0.223
- relative viability ([2]; first compound 5 µM): 0.257
- relative viability ([3]; first compound 0.05 µM): 1.26
- relative viability ([3]; first compound 0.1581 µM): 1.06
- relative viability ([3]; first compound 0.5 µM): 0.987
- relative viability ([3]; first compound 1.581 µM): 0.543
- relative viability ([3]; first compound 5 µM): 0.929
- relative viability ([4]; first compound 0.05 µM): 0.374
- relative viability ([4]; first compound 0.1581 µM): 0.62
- relative viability ([4]; first compound 0.5 µM): 0.383
- relative viability ([4]; first compound 1.581 µM): 0.366
- relative viability ([4]; first compound 5 µM): 0.383

Cell Line: PC-3 [JPC-3]
- relative viability ([1]; 0.05 µM): 0.957
- relative viability ([1]; 0.1581 µM): 1.01
- relative viability ([1]; 0.5 µM): 1.01
- relative viability ([1]; 1.581 µM): 1.02
- relative viability ([1]; 5 µM): 1.03
- relative viability ([2]; first compound 0.05 µM): 0.693
- relative viability ([2]; first compound 0.1581 µM): 0.705
- relative viability ([2]; first compound 1.581 µM): 0.642
- relative viability ([2]; first compound 5 µM): 0.608
- relative viability ([3]; first compound 0.05 µM): 0.717
- relative viability ([3]; first compound 0.1581 µM): 0.918
- relative viability ([3]; first compound 0.5 µM): 0.804
- relative viability ([3]; first compound 1.581 µM): 0.702
- relative viability ([3]; first compound 5 µM): 0.847
- relative viability ([4]; first compound 0.05 µM): 0.444
- relative viability ([4]; first compound 0.1581 µM): 0.476
- relative viability ([4]; first compound 0.5 µM): 0.443
- relative viability ([4]; first compound 1.581 µM): 0.448
- relative viability ([4]; first compound 5 µM): 0.455

Cell Line: PC-14
- relative viability ([1]; 0.05 µM): 1.04
- relative viability ([1]; 0.1581 µM): 1.01
- relative viability ([1]; 0.5 µM): 1.01
- relative viability ([1]; 1.581 µM): 0.707
- relative viability ([1]; 5 µM): 0.425
- relative viability ([2]; first compound 0.05 µM): 0.816
- relative viability ([2]; first compound 0.1581 µM): 0.929
- relative viability ([2]; first compound 0.5 µM): 0.581
- relative viability ([2]; first compound 1.581 µM): 0.337
- relative viability ([2]; first compound 5 µM): 0.272
- relative viability ([3]; first compound 0.05 µM): 1.02
- relative viability ([3]; first compound 0.1581 µM): 0.83
- relative viability ([3]; first compound 0.5 µM): 0.638
- relative viability ([3]; first compound 1.581 µM): 0.248
- relative viability ([3]; first compound 5 µM): 0.206
- relative viability ([4]; first compound 0.05 µM): 0.515
- relative viability ([4]; first compound 0.1581 µM): 0.429
- relative viability ([4]; first compound 0.5 µM): 0.668
- relative viability ([4]; first compound 1.581 µM): 0.388
- relative viability ([4]; first compound 5 µM): 0.211

Cell Line: RERF-LC-KJ
- relative viability ([1]; 0.05 µM): 1.05
- relative viability ([1]; 0.1581 µM): 1.01
- relative viability ([1]; 0.5 µM): 1.01
- relative viability ([1]; 1.581 µM): 0.859
- relative viability ([1]; 5 µM): 0.896
- relative viability ([2]; first compound 0.05 µM): 0.88
- relative viability ([2]; first compound 0.1581 µM): 0.839
- relative viability ([2]; first compound 0.5 µM): 0.835
- relative viability ([2]; first compound 1.581 µM): 0.8
- relative viability ([2]; first compound 5 µM): 0.657
- relative viability ([3]; first compound 0.05 µM): 0.639
- relative viability ([3]; first compound 0.1581 µM): 0.543
- relative viability ([3]; first compound 0.5 µM): 0.535
- relative viability ([3]; first compound 1.581 µM): 0.527
- relative viability ([3]; first compound 5 µM): 0.511
- relative viability ([4]; first compound 0.05 µM): 0.41
- relative viability ([4]; first compound 0.1581 µM): 0.46
- relative viability ([4]; first compound 0.5 µM): 0.41
- relative viability ([4]; first compound 1.581 µM): 0.408
- relative viability ([4]; first compound 5 µM): 0.412

Cell Line: SK-LU-1
- relative viability ([1]; 0.05 µM): 1.18
- relative viability ([1]; 0.1581 µM): 0.696
- relative viability ([1]; 0.5 µM): 0.809
- relative viability ([1]; 1.581 µM): 0.432
- relative viability ([1]; 5 µM): 0.268
- relative viability ([2]; first compound 0.05 µM): 0.616
- relative viability ([2]; first compound 0.1581 µM): 0.423
- relative viability ([2]; first compound 0.5 µM): 0.422
- relative viability ([2]; first compound 1.581 µM): 0.328
- relative viability ([2]; first compound 5 µM): 0.292
- relative viability ([3]; first compound 0.05 µM): 0.39
- relative viability ([3]; first compound 0.1581 µM): 0.279
- relative viability ([3]; first compound 0.5 µM): 0.237
- relative viability ([3]; first compound 1.581 µM): 0.248
- relative viability ([3]; first compound 5 µM): 0.183
- relative viability ([4]; first compound 0.05 µM): 0.515
- relative viability ([4]; first compound 0.1581 µM): 0.426
- relative viability ([4]; first compound 0.5 µM): 0.299
- relative viability ([4]; first compound 1.581 µM): 0.254
- relative viability ([4]; first compound 5 µM): 0.184

Cell Line: SK-MES-1
- relative viability ([1]; 0.05 µM): 1.09
- relative viability ([1]; 0.1581 µM): 1.08
- relative viability ([1]; 0.5 µM): 0.979
- relative viability ([1]; 1.581 µM): 0.606
- relative viability ([1]; 5 µM): 0.34
- relative viability ([2]; first compound 0.05 µM): 0.595
- relative viability ([2]; first compound 0.1581 µM): 0.567
- relative viability ([2]; first compound 0.5 µM): 0.607
- relative viability ([2]; first compound 1.581 µM): 0.346
- relative viability ([2]; first compound 5 µM): 0.222
- relative viability ([3]; first compound 0.05 µM): 0.621
- relative viability ([3]; first compound 0.1581 µM): 0.562
- relative viability ([3]; first compound 0.5 µM): 0.416
- relative viability ([3]; first compound 1.581 µM): 0.244
- relative viability ([3]; first compound 5 µM): 0.16
- relative viability ([4]; first compound 0.05 µM): 0.664
- relative viability ([4]; first compound 0.1581 µM): 0.735
- relative viability ([4]; first compound 0.5 µM): 0.663
- relative viability ([4]; first compound 1.581 µM): 0.419
- relative viability ([4]; first compound 5 µM): 0.188

Cell Line: SW 1573
- relative viability ([1]; 0.05 µM): 0.93
- relative viability ([1]; 0.1581 µM): 1.07
- relative viability ([1]; 0.5 µM): 1.12
- relative viability ([1]; 1.581 µM): 0.924
- relative viability ([1]; 5 µM): 0.894
- relative viability ([2]; first compound 0.05 µM): 0.538
- relative viability ([2]; first compound 0.1581 µM): 0.642
- relative viability ([2]; first compound 0.5 µM): 0.558
- relative viability ([2]; first compound 1.581 µM): 0.506
- relative viability ([2]; first compound 5 µM): 0.516
- relative viability ([3]; first compound 0.05 µM): 0.547
- relative viability ([3]; first compound 0.1581 µM): 0.745
- relative viability ([3]; first compound 0.5 µM): 0.606
- relative viability ([3]; first compound 1.581 µM): 0.505
- relative viability ([3]; first compound 5 µM): 0.465
- relative viability ([4]; first compound 0.05 µM): 0.388
- relative viability ([4]; first compound 0.1581 µM): 0.381
- relative viability ([4]; first compound 0.5 µM): 0.325
- relative viability ([4]; first compound 1.581 µM): 0.215
- relative viability ([4]; first compound 5 µM): 0.219

Cell Line: UMC-11
- relative viability ([1]; 0.05 µM): 1.08
- relative viability ([1]; 0.1581 µM): 0.873
- relative viability ([1]; 0.5 µM): 0.856
- relative viability ([1]; 1.581 µM): 0.788
- relative viability ([1]; 5 µM): 0.565
- relative viability ([2]; first compound 0.05 µM): 0.753
- relative viability ([2]; first compound 0.1581 µM): 0.684
- relative viability ([2]; first compound 0.5 µM): 0.502
- relative viability ([2]; first compound 1.581 µM): 0.579
- relative viability ([2]; first compound 5 µM): 0.402
- relative viability ([3]; first compound 0.05 µM): 0.495
- relative viability ([3]; first compound 0.1581 µM): 0.427
- relative viability ([3]; first compound 0.5 µM): 0.438
- relative viability ([3]; first compound 1.581 µM): 0.267
- relative viability ([3]; first compound 5 µM): 0.279
- relative viability ([4]; first compound 0.05 µM): 0.337
- relative viability ([4]; first compound 0.1581 µM): 0.309
- relative viability ([4]; first compound 0.5 µM): 0.32
- relative viability ([4]; first compound 1.581 µM): 0.305
- relative viability ([4]; first compound 5 µM): 0.274
